Assay results: patent US20150126467A1, “USE OF ALGINATE OLIGOMERS TO ENHANCE THE EFFECTS OF ANTIFUNGAL AGENTS” (AlgiIPharma AS, priority 2011, published 2015)

Tests used:
Type in all cases: cell-based
[1] = system: Cryptococcus neoformans CCUG 23451; experiment: Robotic MIC assay, Cryptococcus neoformans (Example 6)
Procedure: Cryptococcus sp. was grown at 30° C. for 96 h on YM-agar. Spores and aerial mycelium was cut out from the agar, suspended in 1 ml YM-broth and dispersed with glass beads (1 mm) in a mini bead beater for 2 min. The suspension was added glycerol to 10% and frozen at −80° C. Each batch of frozen stock culture was then characterized in separate growth experiments using Mueller-Hinton and RPMI to determine the minimum amount of inoculum giving satisfactory growth after 48 h under the conditions relevant for the MIC assay. This inoculum procedure is used in order to reduce day to day variation in bioassays.
Robotic minimum inhibitory concentration (MIC) assay was performed as follows. OligoG CF-5/20 was dissolved in medium (Mueller-Hinton, RPMI with 2% glucose, Sabouraud or YM) to 1.25 times of the desired assay concentrations (2, 6 and 10%). […].
(§1) Two-fold serial dilutions of antifungal agents were made in medium with different concentrations of OligoG CF-5/20, and the solutions were placed in four parallel wells in Nunc 384-well micro plates (30 μl per well in Nunc 242757 microplates). A group of 8 wells with no addition of antifungal agents for each OligoG CF-5/20 concentration was included on each micro plate as growth reference. Each well in the 384-well assay plates was added 7.5 μl of the medium innoculated with frozen stock culture of the relevant strains.
The microplates were placed in plastic bags and incubated without shaking at 34° C. The optical density at 600 nm in the microwells was measured after certain time points from 24 h to 96 h of incubation. […]

[2] = system: Aspergillus niger CCUG 18919; experiment: Robotic MIC assay, Aspergillus (Example 4); conditions: A. niger CCUG 18919, 48 hours, Mueller-Hinton broth
Procedure: (§2) Aspergillus sp. was grown at 30° C. for 96 h on YM-agar. Spores and aerial mycelium was cut out from the agar, suspended in 1 ml YM-broth and dispersed with glass beads (1 mm) in a mini bead beater for 2 min. Glycerol was added to the suspension to 10% and frozen at −80° C.
(§3) Each batch of frozen stock culture was then characterized in separate growth experiments using Mueller-Hinton broth to determine the minimum amount of inoculum giving satisfactory growth after 48 h under the conditions relevant for the MIC assay. This inoculation procedure is used in order to reduce day to day variation in bioassays.
(§4) Robotic minimum inhibitory concentration (MIC) assay was performed as follows. OligoG CF-5/20 was dissolved in medium (Mueller-Hinton broth) to 1.25 times of the desired assay concentrations (2, 6 and 10%). […].
as §1, with “of the MH medium inoculated” for “of the medium innoculated”, “MH medium inoculated with frozen” for “the medium innoculated with frozen”
(§5) The microplates were placed in plastic bags and incubated without shaking at 34° C. The optical density at 600 nm in the microwells was measured after approximately 24 and 48 hours of incubation. […]

[3] = system: Aspergillus fumigatus CCUG 17460; experiment: Robotic MIC assay, Aspergillus (Example 4); conditions: A. fumigatus CCUG 17460, 48 hours, Mueller-Hinton broth
Procedure: as §2, §3, §4
as §1, with “of the MH medium inoculated” for “of the medium innoculated”, “MH medium inoculated with frozen” for “the medium innoculated with frozen”
as §5

[4] = system: Aspergillus flavus CCUG 28296; experiment: Robotic MIC assay, Aspergillus (Example 4); conditions: A. flavus CCUG 23451, 48 hours, Mueller-Hinton broth
Procedure: as §2, §3, §4
as §1, with “of the MH medium inoculated” for “of the medium innoculated”, “MH medium inoculated with frozen” for “the medium innoculated with frozen”
as §5

## C[C@@H]1[C@H](O)[C@@H](C)/C=C/C=C/CC/C=C/C=C/C=C/C=C/C(O[C@H]2O[C@H](C)[C@@H](O)[C@H](N)[C@@H]2O)CC2O[C@](O)(CC(O)C(O)CCC(O)CC(O)CC(O)CC(=O)O[C@H]1C)CC(O)C2C(=O)O (stereo partly shown) [Nystatin, nystatin]
[1]; MH, 0% OligoG, 96 hours
  Minimum Inhibitory Concentration (MIC): 4 µg/mL
[1]; MH, 2% OligoG, 96 hours
  Minimum Inhibitory Concentration (MIC): 1 µg/mL
[1]; RPMI 2% GLU, 0% OligoG, 72 hours
  Minimum Inhibitory Concentration (MIC): 8 µg/mL
[1]; RPMI 2% GLU, 0% OligoG, 96 hours
  Minimum Inhibitory Concentration (MIC): 8 µg/mL
[1]; RPMI 2% GLU, 2% OligoG, 72 hours
  Minimum Inhibitory Concentration (MIC): 8 µg/mL
[1]; RPMI 2% GLU, 2% OligoG, 96 hours
  Minimum Inhibitory Concentration (MIC): 8 µg/mL
[1]; RPMI 2% GLU, 6% OligoG, 72 hours
  Minimum Inhibitory Concentration (MIC): 4 µg/mL
[1]; RPMI 2% GLU, 6% OligoG, 96 hours
  Minimum Inhibitory Concentration (MIC): 8 µg/mL
[1]; Sabouraud, 0% OligoG, 72 hours
  Minimum Inhibitory Concentration (MIC): 2 µg/mL
[1]; Sabouraud, 0% OligoG, 96 hours
  Minimum Inhibitory Concentration (MIC): 2 µg/mL
[1]; Sabouraud, 2% OligoG, 72 hours
  Minimum Inhibitory Concentration (MIC): 0.5 µg/mL
[1]; Sabouraud, 2% OligoG, 96 hours
  Minimum Inhibitory Concentration (MIC): 0.5 µg/mL
[1]; Sabouraud, 6% OligoG, 72 hours
  Minimum Inhibitory Concentration (MIC): 0.25 µg/mL
[1]; Sabouraud, 6% OligoG, 96 hours
  Minimum Inhibitory Concentration (MIC): 0.25 µg/mL
[1]; YM, 0% OligoG, 72 hours
  Minimum Inhibitory Concentration (MIC): 8 µg/mL
[1]; YM, 0% OligoG, 96 hours
  Minimum Inhibitory Concentration (MIC): 16 µg/mL
[1]; YM, 2% OligoG, 72 hours
  Minimum Inhibitory Concentration (MIC): 4 µg/mL
[1]; YM, 2% OligoG, 96 hours
  Minimum Inhibitory Concentration (MIC): 8 µg/mL
[1]; media: RPMI with 2% glucose, MH, Sabouraud, YM
  effect on MIC when OligoG is added to the medium: reduction in MIC in all media tested
[2]; 0% OligoG
  Minimum Inhibitory Concentration (MIC): 8 µg/mL
[2]; 2% OligoG
  Minimum Inhibitory Concentration (MIC): 4 µg/mL
[2]; 6% OligoG
  Minimum Inhibitory Concentration (MIC): 2 µg/mL
[2]; 10% OligoG
  Minimum Inhibitory Concentration (MIC): 0.5 µg/mL
[3]; 0% OligoG
  Minimum Inhibitory Concentration (MIC): 8 µg/mL
[3]; 2% OligoG
  Minimum Inhibitory Concentration (MIC): 8 µg/mL
[3]; 6% OligoG
  Minimum Inhibitory Concentration (MIC): 4 µg/mL
[3]; 10% OligoG
  Minimum Inhibitory Concentration (MIC): 2 µg/mL
[4]; 0% OligoG
  Minimum Inhibitory Concentration (MIC): 8 µg/mL
[4]; 2% OligoG
  Minimum Inhibitory Concentration (MIC): 8 µg/mL
[4]; 6% OligoG
  Minimum Inhibitory Concentration (MIC): 4 µg/mL
[4]; 10% OligoG
  Minimum Inhibitory Concentration (MIC): 2 µg/mL
